In brackets after ≈: the same amount, converted by molar mass. Entries after “also recorded” stand apart in the source; their conditions may differ. Like-named read-outs stand apart in the source and are kept apart here.
Columns and labels:
Format in all cases: physicochemical
[1] = Influence of ambient temperature on the water solubility of trehalose (Experiment 1); conditions: for solubility thermodynamic: water, 5 °C, saturated solution
Method: The water solubility of trehalose at ambient temperature was studied by placing in a glass beaker 10 parts by weight of water and 20 parts by weight of crystalline trehalose hydrate, allowing the solution to stand at 5, 10, 15, 20, 25, 30 or 40° C. while stirring, sampling the solution, filtering the sample, and measuring the trehalose content in the filtrate to determine the solubility of trehalose in 100 g water at each temperature, i.e., the amount (g) of trehalose, d.s.b., that dissolves in 100 g water to give a saturated solution at each temperature.

[2] = Influence of the concentrations of trehalose and of mono-/diglucosyltrehalose on trehalose crystallization (Experiment 3); set-up: key to Formation of trehalose crystal: "+" means that it crystallized; "-" means that it did not
Method: The trehalose crystallization inhibitory effect was experimented by dissolving trehalose under heating conditions in water in an amount of 1.5, 2.0, 2.5, 2.8 or 3.3-times the water solubility at 10° C., dissolving in the solution other oligosaccharides having a trehalose structure within their molecules in an amount of 10, 30 or 60% to the trehalose, d.s.b, and allowing the resultant solution to stand at a relatively-low temperature.
Based on the results in Experiment 1, 1.5, 2.0, 2.5, 2.8 and 3.3-times the water solubility of trehalose in 100 parts by weight of water at 10° C. water corresponded to 83, 111, 138, 155 and 182 parts by weight of trehalose anhydride, d.s.b., respectively With this relationship, testing solutions with the composition as shown in Table 3 were prepared by dissolving under heating conditions in a respective glass beaker 100 parts by weight of water, trehalose in a prescribed part by weight, and either monoglucosyltrehalose, i.e., α-glucosyltrehalose or diglucosyltrehalose, i.e., α-maltosyltrehalose in a prescribed ratio, allowing the solution to stand in a thermostatic place kept at 5, 10 or 15° C. for checking the trehalose crystallization inhibitory effect.

[3] = Trehalose crystallization inhibitory effect of coexisting saccharides in a trehalose syrup over the water solubility (Experiment 2); conditions: trehalose dissolved in an amount over the water solubility; summary of Table 2
Method: Trehalose was dissolved by heating in water in an amount of 1.5-times the water solubility at 10° C., and the trehalose solution was allowed to stand at a relatively-cold place for checking the trehalose crystallization inhibitory effect by saccharides. […] With this relationship, testing solutions were prepared by dissolving by heating in 100 parts by weight of water in a respective glass beaker 83 parts by weight of trehalose, and a saccharide in an amount of 10% to the trehalose, i.e., 8.3 parts by weight of the saccharide selected from the group consisting of glucose, maltose, isomaltose, lactose, maltotriose, panose, maltotetraose, sorbitol, maltitol, maltotriitol, sucrose, raffinose, erlose, saccharides such as α-glucosyltrehalose or monoglucosyltrehalose, α-maltosyltrehalose or diglucosyltrehalose, and α-maltotriosyltrehalose or triglucosyltrehalose as disclosed in Japanese Patent Kokai No.143,876/95 by the present applicant; a saccharide such as α-isomaltosyl-α-glucoside or monoglucosyltrehalose as disclosed in Japanese Patent Kokai No.217,784/96 by the same applicant; and a saccharide such as α-maltosyl-α-maltoside or diglucosyltrehalose as disclosed in Japanese Patent Application No.167,486/94 by the same applicant. Each solution was allowed to stand in a thermostatic place kept at 5, 10 or 15° C. for one week, followed by macroscopically observing the presence of trehalose crystal for evaluating the trehalose crystallization inhibitory effect by the saccharides.

## OC[C@H]1O[C@H](O[C@H]2O[C@H](CO)[C@@H](O)[C@H](O)[C@H]2O)[C@H](O)[C@@H](O)[C@@H]1O [Trehalose, α, α-trehalose]
[1]; ambient temperature, summary of Table 1
  Water solubility (in words): relatively-low water solubility
[1]; d.s.b., read-out: Amount of trehalose (g) dissolving in 100 g water
  solubility thermodynamic: 496 mg/mL (≈ 1450 mM)
[1]; read-out: Trehalose concentration (%)
  solubility thermodynamic: 332 mg/mL (≈ 970 mM)

## OC[C@H]1O[C@H](O[C@H]2O[C@H](CO)[C@@H](O[C@H]3O[C@H](CO)[C@@H](O[C@H]4O[C@H](CO)[C@@H](O)[C@H](O)[C@H]4O)[C@H](O)[C@H]3O)[C@H](O)[C@H]2O)[C@H](O)[C@@H](O)[C@@H]1O [α-Maltosyltrehalose, α-maltosyltrehalose]
[2]; coexisting diglucosyltrehalose
  Amount of trehalose, times the water solubility, beyond which crystallization of trehalose was observed: exceeds 2.8 times the water solubility
[2]; summary of Table 3, listed as diglucosyltrehalose
  Trehalose crystallization inhibitory effect (in words): satisfactory trehalose crystallization inhibitory effect; also recorded: stronger effect
[2]; water 100, trehalose 83, coexisting saccharide 8.3 parts by weight, 5° C. (1.7-times solubility)
  Formation of trehalose crystal: -
[2]; water 100, trehalose 83, coexisting saccharide 8.3 parts by weight, 10° C. (1.5-times solubility)
  Formation of trehalose crystal: -
[2]; water 100, trehalose 83, coexisting saccharide 8.3 parts by weight, 15° C. (1.3-times solubility)
  Formation of trehalose crystal: -
[2]; water 100, trehalose 83, coexisting saccharide 25 parts by weight, 5° C. (1.7-times solubility)
  Formation of trehalose crystal: -
[2]; water 100, trehalose 83, coexisting saccharide 25 parts by weight, 10° C. (1.5-times solubility)
  Formation of trehalose crystal: -
[2]; water 100, trehalose 83, coexisting saccharide 25 parts by weight, 15° C. (1.3-times solubility)
  Formation of trehalose crystal: -
[2]; water 100, trehalose 83, coexisting saccharide 50 parts by weight, 5° C. (1.7-times solubility)
  Formation of trehalose crystal: -
[2]; water 100, trehalose 83, coexisting saccharide 50 parts by weight, 10° C. (1.5-times solubility)
  Formation of trehalose crystal: -
[2]; water 100, trehalose 83, coexisting saccharide 50 parts by weight, 15° C. (1.3-times solubility)
  Formation of trehalose crystal: -
[2]; water 100, trehalose 111, coexisting saccharide 11 parts by weight, 5° C. (2.2-times solubility)
  Formation of trehalose crystal: -
[2]; water 100, trehalose 111, coexisting saccharide 11 parts by weight, 10° C. (2.0-times solubility)
  Formation of trehalose crystal: -
[2]; water 100, trehalose 111, coexisting saccharide 11 parts by weight, 15° C. (1.8-times solubility)
  Formation of trehalose crystal: -
[2]; water 100, trehalose 111, coexisting saccharide 33 parts by weight, 5° C. (2.2-times solubility)
  Formation of trehalose crystal: -
[2]; water 100, trehalose 111, coexisting saccharide 33 parts by weight, 10° C. (2.0-times solubility)
  Formation of trehalose crystal: -
[2]; water 100, trehalose 111, coexisting saccharide 33 parts by weight, 15° C. (1.8-times solubility)
  Formation of trehalose crystal: -
[2]; water 100, trehalose 111, coexisting saccharide 66 parts by weight, 5° C. (2.2-times solubility)
  Formation of trehalose crystal: -
[2]; water 100, trehalose 111, coexisting saccharide 66 parts by weight, 10° C. (2.0-times solubility)
  Formation of trehalose crystal: -
[2]; water 100, trehalose 111, coexisting saccharide 66 parts by weight, 15° C. (1.8-times solubility)
  Formation of trehalose crystal: -
[2]; water 100, trehalose 138, coexisting saccharide 14 parts by weight, 5° C. (2.8-times solubility)
  Formation of trehalose crystal: +
[2]; water 100, trehalose 138, coexisting saccharide 14 parts by weight, 10° C. (2.5-times solubility)
  Formation of trehalose crystal: -
[2]; water 100, trehalose 138, coexisting saccharide 14 parts by weight, 15° C. (2.2-times solubility)
  Formation of trehalose crystal: -
[2]; water 100, trehalose 138, coexisting saccharide 42 parts by weight, 5° C. (2.8-times solubility)
  Formation of trehalose crystal: +
[2]; water 100, trehalose 138, coexisting saccharide 42 parts by weight, 10° C. (2.5-times solubility)
  Formation of trehalose crystal: -
[2]; water 100, trehalose 138, coexisting saccharide 42 parts by weight, 15° C. (2.2-times solubility)
  Formation of trehalose crystal: -
[2]; water 100, trehalose 138, coexisting saccharide 83 parts by weight, 5° C. (2.8-times solubility)
  Formation of trehalose crystal: -
[2]; water 100, trehalose 138, coexisting saccharide 83 parts by weight, 10° C. (2.5-times solubility)
  Formation of trehalose crystal: -
[2]; water 100, trehalose 138, coexisting saccharide 83 parts by weight, 15° C. (2.2-times solubility)
  Formation of trehalose crystal: -
[2]; water 100, trehalose 155, coexisting saccharide 16 parts by weight, 5° C. (3.1-times solubility)
  Formation of trehalose crystal: +
[2]; water 100, trehalose 155, coexisting saccharide 16 parts by weight, 10° C. (2.8-times solubility)
  Formation of trehalose crystal: +
[2]; water 100, trehalose 155, coexisting saccharide 16 parts by weight, 15° C. (2.5-times solubility)
  Formation of trehalose crystal: -
[2]; water 100, trehalose 155, coexisting saccharide 46 parts by weight, 5° C. (3.1-times solubility)
  Formation of trehalose crystal: +
[2]; water 100, trehalose 155, coexisting saccharide 46 parts by weight, 10° C. (2.8-times solubility)
  Formation of trehalose crystal: +
[2]; water 100, trehalose 155, coexisting saccharide 46 parts by weight, 15° C. (2.5-times solubility)
  Formation of trehalose crystal: -
[2]; water 100, trehalose 155, coexisting saccharide 93 parts by weight, 5° C. (3.1-times solubility)
  Formation of trehalose crystal: +
[2]; water 100, trehalose 155, coexisting saccharide 93 parts by weight, 10° C. (2.8-times solubility)
  Formation of trehalose crystal: -
[2]; water 100, trehalose 155, coexisting saccharide 93 parts by weight, 15° C. (2.5-times solubility)
  Formation of trehalose crystal: -
[2]; water 100, trehalose 182, coexisting saccharide 18 parts by weight, 5° C. (3.7-times solubility)
  Formation of trehalose crystal: +
[2]; water 100, trehalose 182, coexisting saccharide 18 parts by weight, 10° C. (3.3-times solubility)
  Formation of trehalose crystal: +
[2]; water 100, trehalose 182, coexisting saccharide 18 parts by weight, 15° C. (3.0-times solubility)
  Formation of trehalose crystal: +
[2]; water 100, trehalose 182, coexisting saccharide 55 parts by weight, 5° C. (3.7-times solubility)
  Formation of trehalose crystal: +
[2]; water 100, trehalose 182, coexisting saccharide 55 parts by weight, 10° C. (3.3-times solubility)
  Formation of trehalose crystal: +
[2]; water 100, trehalose 182, coexisting saccharide 55 parts by weight, 15° C. (3.0-times solubility)
  Formation of trehalose crystal: +
[2]; water 100, trehalose 182, coexisting saccharide 110 parts by weight, 5° C. (3.7-times solubility)
  Formation of trehalose crystal: +
[2]; water 100, trehalose 182, coexisting saccharide 110 parts by weight, 10° C. (3.3-times solubility)
  Formation of trehalose crystal: +
[2]; water 100, trehalose 182, coexisting saccharide 110 parts by weight, 15° C. (3.0-times solubility)
  Formation of trehalose crystal: +
[3]
  Trehalose crystallization inhibitory effect (in words): specifically and effectively inhibited

From patent US5916881A, “High trehalose content syrup” (Kabushiki Kaisha Hayashibara Seibutsu Kagaku Kenkyujo, priority 1996, dated 1999)
